Where two headings read alike, the source gives them in different places.
Assays:
[1] = test system: Fiu promoter; type: cell-based, E. coli
[2] = test system: GrpE promoter; type: cell-based, E. coli
[3] = test system: lacZ promoter; type: cell-based, E. coli
[4] = test system: GrpE promoter; type: cell-based, E. coli; remark: listed apart in the source
[5] = test system: Fiu promoter; type: cell-based, E. coli; remark: listed apart in the source
[6] = test system: E. coli luxCDABE promoter fusion library; type: cell-based
[7] = test system: LacAYZ promoter; type: cell-based, E. coli
[8] = test system: (AP-1-STRE)*2; type: cell-based, Saccharomyces cerevisiae
[9] = test system: MipA promoter; type: cell-based, E. coli
[10] = rat, in vivo, po; cited from earlier work
[11] = test system: STRE; type: cell-based, Saccharomyces cerevisiae
[12] = test system: MipA promoter; type: cell-based, E. coli; remark: listed apart in the source
[13] = test system: yciD promoter; type: cell-based, E. coli
[14] = test system: otsAB promoter; type: cell-based, E. coli
[15] = test system: nhoA promoter; type: cell-based, E. coli

Oc1cc(Cl)c(Cl)cc1Cl [2,4,5-Trichlorophenol]
Cmax [1]: 31 mg/L | EC200 [1]: 1.2 mg/L | RRmax [1]: 11.7 | t200 [1]: 39 min | tmax (first value, time to reach RRmax) [1]: 30/120 min | tmax (second value, time to reach ΔLmax) [1]: 30/120 min | ΔLmax [1]: 33,697 RLU | Cmax [2]: 31 mg/L | EC200 [2]: 1.0 mg/L | RRmax [2]: 22.1 | t200 [2]: 21 min | tmax (first value, time to reach RRmax) [2]: 90/90 min | tmax (second value, time to reach ΔLmax) [2]: 90/90 min | ΔLmax [2]: 54,432 RLU | Cmax [3]: 31 mg/L | EC200 [3]: 0.8 mg/L | RRmax [3]: 16.1 | t200 [3]: 95 min | tmax (first value, time to reach RRmax) [3]: 120/120 min | tmax (second value, time to reach ΔLmax) [3]: 120/120 min | ΔLmax [3]: 74,832 RLU

Oc1c(Cl)cccc1Cl [2,6-Dichlorophenol]
Cmax [1]: 125 mg/L | EC200 [1]: 16.0 mg/L | RRmax [1]: 4.4 | t200 [1]: 31 min | tmax (first value, time to reach RRmax) [1]: 30/120 min | tmax (second value, time to reach ΔLmax) [1]: 30/120 min | ΔLmax [1]: 25,553 RLU | Cmax [2]: 31 mg/L | EC200 [2]: 1.2 mg/L | RRmax [2]: 19.5 | t200 [2]: 29 min | tmax (first value, time to reach RRmax) [2]: 90/90 min | tmax (second value, time to reach ΔLmax) [2]: 90/90 min | ΔLmax [2]: 47,877 RLU

Oc1ccccc1Cl [2-Chlorophenol]
Cmax [1]: 500 mg/L | EC200 [1]: 3.4 mg/L | RRmax [1]: 5.8 | t200 [1]: 80 min | tmax (first value, time to reach RRmax) [1]: 90/120 min | tmax (second value, time to reach ΔLmax) [1]: 90/120 min | ΔLmax [1]: 11,971 RLU | Cmax [2]: 250 mg/L | EC200 [2]: 2.8 mg/L | RRmax [2]: 18.7 | t200 [2]: 32 min | tmax (first value, time to reach RRmax) [2]: 90/90 min | tmax (second value, time to reach ΔLmax) [2]: 90/90 min | ΔLmax [2]: 33,345 RLU

COc1cc2c(c(OC)c1OC)-c1ccc(OC)c(=O)cc1[C@@H](NC(C)=O)CC2 [Colchicine]
Cmax [1]: 45 mg/L | EC200 [1]: 14.3 mg/L | RRmax [1]: 4.0 | t200 [1]: 85 min | tmax (first value, time to reach RRmax) [1]: 120/120 min | tmax (second value, time to reach ΔLmax) [1]: 120/120 min | ΔLmax [1]: 1,924 RLU

COP(=O)(OC)OC=C(Cl)Cl [DDVP, Dichlorvos]
Cmax [2]: 125 mg/L | EC200 [2]: 32.5 mg/L | t200 [2]: 41 min | tmax (first value, time to reach RRmax) [2]: 132/132 min | tmax (second value, time to reach ΔLmax) [2]: 132/132 min | ΔLmax [2]: 5,290 RLU | Cmax [4]: 125 mg/L | Cmax [5]: 500 mg/L | RRmax [5]: 5 | share of library promoters with 0 < RRmax < 2 [6]: 91.7% | share of library promoters with 2 < RRmax < 3 [6]: 5.7% | share of library promoters with 3 < RRmax < 5 [6]: 2.0% | share of library promoters with 5 < RRmax < 10 [6]: 0.4%

CCOP(=S)(OCC)Oc1ccc([N+](=O)[O-])cc1 [Ethyl Parathion]
Cmax [7]: 500 mg/L | RRmax [7]: 8 | fold higher response [8]: 4-5 fold | time within which a response can be seen [8]: 5 to 10 min | Cmax [9]: 500 mg/L | LD50 [10]: 2 mg/kg | fold higher response [11]: 4-5 fold | time within which a response can be seen [11]: 5 to 10 min | share of library promoters with 0 < RRmax < 2 [6]: 89.6% | share of library promoters with 2 < RRmax < 3 [6]: 6.3% | share of library promoters with 3 < RRmax < 5 [6]: 2.1% | share of library promoters with 5 < RRmax < 10 [6]: 1.7% | Cmax [12]: 500 mg/L | EC200 [12]: 79.0 mg/L | t200 [12]: 60 min | tmax (first value, time to reach RRmax) [12]: 87/110 min | tmax (second value, time to reach ΔLmax) [12]: 87/110 min | ΔLmax [12]: 196,600 RLU | Cmax [3]: 125 mg/L | EC200 [3]: 13.0 mg/L | RRmax [3]: 4.7 | t200 [3]: 120 min | tmax (first value, time to reach RRmax) [3]: 132/132 min | tmax (second value, time to reach ΔLmax) [3]: 132/132 min | ΔLmax [3]: 47,776 RLU

CNC(=S)[S-].[Na+] [Metham Sodium]
Cmax [12]: 180 mg/L | EC200 [12]: 18.0 mg/L | RRmax [12]: 5.9 | t200 [12]: 100 min | tmax (first value, time to reach RRmax) [12]: 120/120 min | tmax (second value, time to reach ΔLmax) [12]: 120/120 min | ΔLmax [12]: 27,745 RLU | Cmax [3]: 180 mg/L | EC200 [3]: 20.0 mg/L | RRmax [3]: 6.5 | t200 [3]: 90 min | tmax (first value, time to reach RRmax) [3]: 120/120 min | tmax (second value, time to reach ΔLmax) [3]: 120/120 min | ΔLmax [3]: 30,468 RLU

CNC(=O)ON=C(C)SC [Methomyl]
Cmax [13]: 2000 mg/L | RRmax [13]: 2 | Cmax [14]: 2000 mg/L | RRmax [14]: 3 | LD50 [10]: 17 mg/kg | response of the library promoters to the toxicant (in words) [6]: very poor responses | share of library promoters with 0 < RRmax < 2 [6]: 90.1% | share of library promoters with 2 < RRmax < 3 [6]: 7.1% | share of library promoters with 3 < RRmax < 5 [6]: 2.0% | share of library promoters with 5 < RRmax < 10 [6]: 0.7% | share of library promoters with 10 < RRmax [6]: 0.1%

C[n+]1ccc(-c2cc[n+](C)cc2)cc1 [Paraquat]
Cmax [1]: 250 mg/L | EC200 [1]: 9.8 mg/L | RRmax [1]: 16.9 | t200 [1]: 42 min | tmax (first value, time to reach RRmax) [1]: 120/60 min | tmax (second value, time to reach ΔLmax) [1]: 120/60 min | ΔLmax [1]: 29,591 RLU | EC200 [15]: 0.43 mg/L | t200 [15]: 21 min | tmax (first value, time to reach RRmax) [15]: 96/110 min | tmax (second value, time to reach ΔLmax) [15]: 96/110 min | ΔLmax [15]: 146,342 RLU | Cmax [7]: 500 mg/L | RRmax [7]: 28 | LD50 [10]: 150 mg/kg | response of the library promoters to the toxicant (in words) [6]: strongest inducer | share of library promoters with 0 < RRmax < 2 [6]: 71.1% | share of library promoters with 2 < RRmax < 3 [6]: 13.7% | share of library promoters with 3 < RRmax < 5 [6]: 7.5% | share of library promoters with 5 < RRmax < 10 [6]: 3.7% | share of library promoters with 10 < RRmax [6]: 4% | Cmax [3]: 32.5 mg/L | EC200 [3]: 9.0 mg/L | RRmax [3]: 13.0 | t200 [3]: 85 min | tmax (first value, time to reach RRmax) [3]: 123/132 min | tmax (second value, time to reach ΔLmax) [3]: 123/132 min | ΔLmax [3]: 253,421 RLU

COC(=O)C=C(C)OP(=O)(OC)OC [Phosdrin]
Cmax [3]: 180 mg/L | EC200 [3]: 38.3 mg/L | RRmax [3]: 3.7 | t200 [3]: 110 min | tmax (first value, time to reach RRmax) [3]: 120/120 min | tmax (second value, time to reach ΔLmax) [3]: 120/120 min | ΔLmax [3]: 12,900 RLU

Botulinum Toxin A
response of the library promoters to the toxicant (in words) [6]: did not produce any response | share of library promoters with 0 < RRmax < 2 [6]: 100%
